Publication PMC6149949, “Synthesis and Evaluation of Thiochroman-4-One Derivatives as Potential Leishmanicidal Agents” (Molecules : A Journal of Synthetic Chemistry and Natural …, 2017)

Experiments:
in vitro = details: human
Protocol: Cytotoxicity of the compounds was evaluated over human monocytes (U-937 ATCC CRL-1593.2) in exponential growing phase and, adjusted at 1 × 10^5 cells/mL in RPMI-1640 enriched with 10% fetal bovine serum (FBS). One hundred microliters of cell suspension were dispensed in each well of a 96-wells microplate and then, 100 μL of each compound or standard drug (amphotericin B) at four serial dilution concentrations (200, 50, 12.5 and 3.125 μg/mL) were added dissolved in pbs with 0.5% DMSO. Cell exposed to compounds or standard drugs were incubated 72 h at 37 °C and 5% of CO2. Cytotoxic activity of each compound was determined according to the effect on the cell viability by the MTT microenzymatic method in which 3-(4,5-dimethylthiazol-2-yl)- 2,5-diphenyltetrazolium bromide is reduced to a purple product named formazan by mitochondrial enzyme succinate dehydrogenase. Thus, 10 μL/well of MTT solution (5 mg/mL) were added to each well of exposed and unexposed cells, and plates were incubated at 37 °C, 5% CO2 during 3 h. The reaction was stopped by adding 100 μL/well of isopropanol with 50% and 10% of SDS (sodium dodecyl sulfate). The concentration of formazan was determined spectrophotometrically at 570 nm (Varioskan Flash Multimode Reader, Thermo Scientific, Waltham, MA, USA) and intensity of color (absorbance) was registered as O.D. Cells exposed to control drug (amphotericin B) were used as control for toxicity (positive control) while cell incubated in absence of any compound or drug were used as control for viability (negative control). Non-specific absorbance was corrected by subtracting absorbance (O.D) of the blank. Determinations were done by triplicate in at least two independent experiments.
Cytotoxicity was determined according to viability and mortality percentages obtained for each experimental condition (synthetized compounds, amphotericin B and culture medium). Results were expressed as the mean lethal concentrations (LC50), concentration necessary to kill 50% of cells, calculated by the parametric method of linear regression that permits doses-response analysis (Probit analysis).
Initially, viability percentages were calculated by Equation (1), where the O.D of control well, corresponds to 100% of viability. % viability = (O.D exposed cells/O.D unexposed cells) × 100(1)
Then, the percentage of cell growth inhibition was calculated using Equation (2):% inhibition = 100 − (% Viability)(2)
The toxicity was defined according to LC50 values, using the follow scale: Toxic; LC50 < 100 μM; moderately toxic; LC50 > 100 μM and <200 μM and potentially nontoxic; LC50 > 200 μM.

[1] = test system: intracellular amastigotes of Leishmania panamensis (MHOM/CO/87/UA140-EGFP strain); assay: In vitro antileishmanial activity on intracellular amastigotes (GFP, flow cytometry); assay type: cell-based; details: for EC50: Leishmania panamensis, U-937, 72 h, intracellular amastigotes of L. panamensis in U-937 cells, 72 h, mean ± SD; for SI (index of selectivity, IS = LC50/EC50): LC50 U-937 / EC50 L. panamensis amastigotes
Protocol: Antileishmanial activity of compounds was determined according to the ability of the compound to reduce the infection by L. panamensis parasites. For this, the antileishmanial activity was tested on intracellular amastigotes of L. panamensis transfected with the green fluorescent protein gene (MHOM/CO/87/UA140-EGFP strain). Briefly, U-937 human cells at a density of 3 × 10^5 cells/mL in RPMI 1640 and 0.1 μg/mL of PMA (phorbol-12-myristate-13-acetate) were dispensed on 24-wells microplate and then infected with stationary phase growing L. panamensis promastigotes in 15:1 parasites per cell ratio. Plates were incubated at 34 °C and 5% CO2 for 3 h and then cells were washed twice with phosphate buffer solution (PBS) to eliminate not internalized parasites. Fresh RPMI-1640 was added into each well (1 mL) and plates were incubated again. After 24 h of infection, the RPMI-1640 medium was replaced by fresh culture medium containing each compound at four serial dilutions (50, 12.5, 3.125 and 0.78 μg/mL) and plates were then incubated at 37 °C and 5% CO2 during 72 h, then, cells were removed from the bottom plate with 100 μL of EDTA/Trypsin (250 mg) solution. The cells were centrifuged at 1100 rpm during 10 min at 4 °C, the supernatant was discarded and cells were washed with 1 mL of cold PBS and centrifuged at 1100 rpm for 10 min at 4 °C. Cells were washed two times employing PBS, as previously, and after the last wash, the supernatant was discarded and cells were suspended in 500 μL of PBS.
Cells were analyzed by flow cytometry employing a flow cytometer (cytomics FC 500MPL, Beckman Coulter. Pasadena, CA, USA) reading at 488 nm (exciting) and 525 nm (emitting) over an argon laser and counting 10,000 events. Infected cells were determined according the events for green fluorescence (parasites). All determinations for each compound and standard drug were carried out by triplicate, in two experiments. Infected cells exposed to control drug (amphotericin B) were used as control for antileishmanial activity (positive control) while infected cells incubated in absence of any compound or drug were used as control for infection (negative control). Nonspecific fluorescence was corrected by subtracting fluorescence of unstained cells. Determinations were done by triplicate in at least two independent experiments.
Antileishmanial activity was determined according reduction of percentage of fluorescent parasites determined according to the median fluorescence intensity (MFI), obtained for each experimental condition by cytometry. The parasite values for each concentration of compound were calculated by Equation (3), where the % of parasites in the control well, corresponds to 100% of parasites. % parasites = (MFI exposed parasites/MFI unexposed parasites) × 100(3)
Then, inhibition percentage was calculated with Equation (4):% inhibition of parasites = 100 − (% parasites)(4)
Results of antileishmanial activities were expressed as the median effective concentrations (EC50) measured by Probit method.

Compound	CC50 at 72 h (in vitro) [µM]	EC50 [1] [µM]	SI (index of selectivity, IS = LC50/EC50) [1]
C[C@@H]1[C@H](O)[C@@H](C)/C=C/C=C/C=C/C=C/C=C/C=C/C=C/[C@H](O[C@@H]2O[C@H](C)[C@@H](O)[C@H](N)[C@@H]2O)C[C@@H]2O[C@](O)(C[C@@H](O)C[C@@H](O)[C@H](O)CC[C@@H](O)C[C@@H](O)CC(=O)O[C@H]1C)C[C@H](O)[C@H]2C(=O)O [Amphotericin B, reference compound]	39.6 ± 8.7	0.32	
CC1CC(=O)c2ccccc2S1 (stereo not shown) [Compound 1a, 2-Methylthiochroman-4-one]	604 ± 86.4		1.36
CC1CC(=O)c2cc(F)ccc2S1 (stereo not shown) [Compound 1b, 6-Fluoro-2-methylthiochroman-4-one]	579 ± 59.1		1.37
O=C1CCSc2ccc(F)cc21 [Compound 1c, 6-Fluorothiochroman-4-one]	705	> 110	<6.42
O=C1CCSc2c1ccc1c2C(=O)CCS1 [Compound 1d, 2,3,8,9-Tetrahydro-4H,10H-thiopyran[2,3-f]thiochromene-4,10-dione]	279 ± 36.4	> 80	<3.49
O=C1CC(C(=O)O)Sc2ccccc21 (stereo not shown) [Compound 1e, 4-Oxothiochroman-2-carboxylic acid]	143 ± 16.8	> 96.1	<1.48
O=C1CCSc2ccc([N+](=O)[O-])cc21 [Compound 1f, 6-Nitrothiochroman-4-one]	> 200	> 95.6	
Nc1ccc2c(c1)C(=O)CCS2 [Compound 1g, 6-Aminothiochroman-4-one]	118 ± 10.5	> 112	<1.100
O=C1CC(c2ccccc2)Sc2ccccc21 (stereo not shown) [Compound 1h, 2-Phenylthiochroman-4-one]	> 41.6	44.1 ± 0.9	
O=C1CC(c2ccc(C(F)(F)F)cc2)Sc2ccccc21 (stereo not shown) [Compound 1i, 2-(4-(Trifluoromethyl)-phenyl)-thiochroman-4-one]	> 649	61.4 ± 1.62	>10.56
O=C1CC(c2ccc(C(F)(F)F)cc2)Sc2ccc(F)cc21 (stereo not shown) [Compound 1j, 6-Fluoro-2-(4-(trifluoromethyl)-phenyl)thiochroman-4-one]	129 ± 3.45	80.3 ± 12.1	1.60
O=C1CC(c2ccc(Cl)cc2)Sc2ccccc21 (stereo not shown) [Compound 1k, 2-(4-Chlorophenyl)-thiochroman-4-one]	64.4 ± 3.98	> 72.8	<0.90
O=C1CC(c2ccc(F)cc2)Sc2ccccc21 (stereo not shown) [Compound 1l, 2-(4-Fluorophenyl)-thiochroman-4-one]	72.9 ± 9.87	93.6 ± 11	0.78
O=C1CC(c2ccc([N+](=O)[O-])cc2)Sc2ccccc21 (stereo not shown) [Compound 1m, 2-(4-Nitrophenyl)-thiochroman-4-one]	> 701	> 70.1	
O=c1ccsc2ccc([N+](=O)[O-])cc12 [Compound 2f, 6-Nitro-4H-thiochromen-4-one]	> 965	36.8 ± 1.74	>26.26
O=c1cc(-c2ccc(C(F)(F)F)cc2)sc2ccccc12 [Compound 2i, 2-(4-(Trifluoromethyl)-phenyl)-4H-thiochromen-4-one]	522 ± 314	161 ± 20.5	3.24
O=c1cc(-c2ccc(C(F)(F)F)cc2)sc2ccc(F)cc12 [Compound 2j, 6-Fluoro-2-(4-(trifluoromethyl)-phenyl)-4H-thiochromen-4-one]	51.4 ± 11.6	52.3 ± 8.92	0.98
O=C1C=C(c2ccc(C(F)(F)F)cc2)S(=O)(=O)c2ccc(F)cc21 [Compound 4j, 6-Fluoro-2-(4-(trifluoromethyl)-phenyl)-4H-thiochromen-4-one 1,1-dioxide]	> 561		
